Data: EP0326526A1, “Aminoketones of substituted dibenzo- and pyridobenzo-azepinones and pharmaceutical compositions” (ISTITUTO DE ANGELI S.p.A., priority 1988, dated 1989)

Assays:
[1] = target: T1, M₁ muscarinic receptors (cerebral cortex) (Rattus norvegicus, UniProt P08482); test: Muscarinic M₁ receptor binding: displacement of ³H-pirenzepine from cerebral cortex homogenate; set-up: species or system male CD-COOBBS rats; details: competition against 0.5 nM ³H-pirenzepine, 45 min at 30°C, read-out: IN VITRO RECEPTOR BINDING TEST KD M₁ (cortex)
T1 construct: displacement of ³H-pirenzepine from cerebral cortex homogenate; from tissue; host or cells: rat cerebral cortex homogenate
T1 sequence (P08482 1-460): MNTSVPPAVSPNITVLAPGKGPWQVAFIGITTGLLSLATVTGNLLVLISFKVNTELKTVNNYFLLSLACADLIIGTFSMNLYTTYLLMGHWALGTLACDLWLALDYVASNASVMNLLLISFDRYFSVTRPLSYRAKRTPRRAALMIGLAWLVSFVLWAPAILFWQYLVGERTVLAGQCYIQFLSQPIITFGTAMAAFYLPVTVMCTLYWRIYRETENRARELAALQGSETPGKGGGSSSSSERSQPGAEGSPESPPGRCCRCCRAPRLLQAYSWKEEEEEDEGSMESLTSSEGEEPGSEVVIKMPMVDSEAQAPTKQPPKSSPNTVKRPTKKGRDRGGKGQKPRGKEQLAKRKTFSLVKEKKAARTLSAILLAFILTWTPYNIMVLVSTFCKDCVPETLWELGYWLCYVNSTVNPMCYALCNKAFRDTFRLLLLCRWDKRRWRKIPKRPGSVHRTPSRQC
Method: (§1) Antimuscarinic activity and selectivity were examined in vitro by receptor binding studies in two tissues endowed with M₁ and M₂ muscarinic receptors (cerebral cortex, heart) and in vivo by studying the acid secretion and pepsin inhibition (M₁ response) in comparison with the cardiac and mydriatic effects (M₂ response) in conscious dogs equipped with cronic gastric fistula.
Muscarinic M₁ activity was determined by studying the displacement of ³H-pirenzepine from cerebral cortex homogenate according to the procedure reported below: The cerebral cortex donors were male CD-COOBBS rats, 220-250 g body weight. The homogenization process was carried out in a Potter-Evelhjem apparatus in the presence of Na⁺/Mg⁺⁺ HEPES buffer; pH 7.4 (100 mM NaCl, 10 mM MgCl₂, 20 mM HEPES); by filtering the suspension through two layers of cheesecloth. Binding curves for the under study compounds were derived indirectly from competition experiments against 0.5 nM ³H-pirenzepine labelling the muscarinic receptors of the cerebral cortex. 1 ml of the homogenate was incubated for 45 min at 30°C in the presence of a marker ligand and dif ferent concentrations of the cold ligand, conditions under which equilibrium was reached as determined by appropriate association experiments. The incubation was termination by centrifugation (12,000 rpm for 3 min) at room temperature using an Eppendorf microcentrifuge. The resultant pellet was washed twice with 1.5 ml saline to remove the free radioactivity and the final pellet was allowed to drain. The tips of the tubes containing the pellet were cut off and 200µl of tissue subilizer (Lumasolve, Lumac) were added and left to stand overnight. Radioactivity was then counted after addition of 4 ml of liquid scintillation mixture (Dimilume/Toluene 1:10 v:v, Packard).
Assays were carried out in triplicate or quadruplicate and the non-specific binding was defined as the radioactivity bound or entrapped in the pellet when the incubation medium contained 1 µM atropine sulphate. Non-specific binding avaraged less then 30%. […]

[2] = target: T2, M₂ muscarinic receptors (heart) (Rattus norvegicus, UniProt P10980); test: Muscarinic M₂ receptor binding: displacement of ³H-NMS from total heart homogenate; details: read-out: IN VITRO RECEPTOR BINDING TEST KD M₂ (heart)
T2 construct: displacement of ³H-NMS from total heart homogenate; from tissue; rat inferred
T2 sequence (P10980 1-466): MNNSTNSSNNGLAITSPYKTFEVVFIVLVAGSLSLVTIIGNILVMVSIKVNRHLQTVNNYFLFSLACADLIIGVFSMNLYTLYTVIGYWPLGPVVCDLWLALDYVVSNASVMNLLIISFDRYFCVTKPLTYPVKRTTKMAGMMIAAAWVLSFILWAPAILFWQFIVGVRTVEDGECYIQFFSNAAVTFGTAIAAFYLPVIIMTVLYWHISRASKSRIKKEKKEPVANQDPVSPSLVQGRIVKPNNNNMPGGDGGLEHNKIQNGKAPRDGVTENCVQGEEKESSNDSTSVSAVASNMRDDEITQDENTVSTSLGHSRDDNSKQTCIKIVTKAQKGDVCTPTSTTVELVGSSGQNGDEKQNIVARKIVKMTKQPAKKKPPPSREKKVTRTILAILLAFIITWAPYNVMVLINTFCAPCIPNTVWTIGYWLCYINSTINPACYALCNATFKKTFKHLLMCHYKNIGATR

[3] = system: conscious dogs equipped with cronic gastric fistula; test: Conscious gastric fistula dog in vivo: 2-DG-elicited gastric secretion, heart rate and pupil diameter; set-up: species or system male Beagle dogs; details: cumulative i.v. dosing; for Heart rate ED₅₀ (beats/min): dose increasing heart rate by 50 beats per min; for ED₅₀ (agonist 2-DG*) Acid output: dose inhibiting 50% acid output; for ED₅₀ (agonist 2-DG*) Acid output / ED₅₀ (agonist 2-DG*) Pepsin output: secretion elicited by 2-deoxy-D-glucose 100 mg/kg i.v.; for ED₅₀ (agonist 2-DG*) Pepsin output: dose inhibiting 50% pepsin output; for Dose doubling pupil diameter: dose which at least doubled the initial pupil diameter
Method: as §1
Studies were performed in 5 male Beagle dogs (15-22 Kg) with well established gastric fistula. Gastric secretion was elicited by 2-deoxy-D-glucose (2-DG) (100 mg/kg, infused intravenously in 10 min), and collected by gravity drainage at 15 min intervals. […] Each sample was measured for volume (to the nearest 0.1 ml) and acidity (titration of 1 ml sample to pH 7 with NaOH 0.1 N by means of an automatic titrator ITT Radiometer PHM 62); the pepsin content in each 15 min sample was determined on 0.1 ml of gastric juice (diluted 1:20 wich HCl 0.1 N), using the hemoglobin digestion method described by Anson (J.Gen. Phys. 22 ([…]) 79) and expressed in mU Anson.
The compounds were injected intravenously in a cumulative fashion, each dose being administered at 15 min intervals, starting after the peak response was reached. At each dose level, heart rate was measured by a cardiotachometer and pupil diameter scored under constant light. Doses inhibiting 50% (ED₅₀ and their 95% confidence limits) acid and pepsin output and maximal inhibition (I max), were obtained by fractional linear transformation of the data: D/I = aD+b, were D = dose of antagonist; I = % inhibition of acid or pepsin output; I max = 1/a; ED₅₀ = b/a. (Hirschowitz B.I. Am. J. Physiol. 216: 487-489 1969) Doses increasing heart rate by 50 beats per min (ED₅₀ and their 95% confidence limits) were evaluated by linear regression analysis of the data relating dose to effect.
Doses of compound which at least doubled the initial pupil diameter were also determined.

| SMILES | Kd [1] [nM] | Kd [2] [nM] | Heart rate ED₅₀ (beats/min) [3] [µg/kg i.v.] | ED₅₀ (agonist 2-DG*) Acid output [3] [µg/kg i.v.] | ED₅₀ (agonist 2-DG*) Pepsin output [3] [µg/kg i.v.] | Dose doubling pupil diameter [3] [µg/kg i.v.] |
| --- | --- | --- | --- | --- | --- | --- |
| CN1CCC(C(=O)C2c3ccccc3NC(=O)c3ccccc32)CC1 (stereo not drawn) [Compound 1, 6,11-dihydro-11-[(1-methyl-4-piperidinyl)-carbonyl]-5H-dibenz[b,e]-azepin-6-one] | 2.1 | 212 | 204 | 6.2 | 8.0 | 512 |
| CN1CCC(C(=O)C2c3ccccc3C(=O)Nc3cccc(F)c32)CC1 (stereo not drawn) [Compound 4, 1-fluoro-6,11-dihydro-11-[(1-methyl-4-piperidinyl)-carbonyl]-5H-dibenz[b,e]-azepin-6-one] | 2.2 | 210 | 191 | 6.1 | 5.3 | 512 |
| CN1CCC(C(=O)C2c3ccccc3C(=O)Nc3ccc(Cl)nc32)CC1 (stereo not drawn) [Compound 12, 2-chloro-6,11-dihydro-11-[(1-methyl-4-piperidinyl)-carbonyl]-5H-pyrido[2,3b]-benzazepin-6-one] | 3.15 | 279 | 78 | 7.2 | 6.3 | 320 |
